Results on 30 compounds are retold here after US20040024024A1, “Aromatic sulfone hydroxamates and their use as protease inhibitors” (priority 2001, published 2004).

“And” between values parts separate entries of the source, which are not always exact repeats. Identical values can stand only once. Counter-ions that a name gives are not always drawn.

Holding throughout (assay type): biochemical
One assay concerns the target T1, Human recombinant MMP-2 (Homo sapiens, UniProt P08253).
T1 construct: made in house; host or cells: MMP-2-transfected p2AHT2 cells
T1 sequence (P08253 110-660): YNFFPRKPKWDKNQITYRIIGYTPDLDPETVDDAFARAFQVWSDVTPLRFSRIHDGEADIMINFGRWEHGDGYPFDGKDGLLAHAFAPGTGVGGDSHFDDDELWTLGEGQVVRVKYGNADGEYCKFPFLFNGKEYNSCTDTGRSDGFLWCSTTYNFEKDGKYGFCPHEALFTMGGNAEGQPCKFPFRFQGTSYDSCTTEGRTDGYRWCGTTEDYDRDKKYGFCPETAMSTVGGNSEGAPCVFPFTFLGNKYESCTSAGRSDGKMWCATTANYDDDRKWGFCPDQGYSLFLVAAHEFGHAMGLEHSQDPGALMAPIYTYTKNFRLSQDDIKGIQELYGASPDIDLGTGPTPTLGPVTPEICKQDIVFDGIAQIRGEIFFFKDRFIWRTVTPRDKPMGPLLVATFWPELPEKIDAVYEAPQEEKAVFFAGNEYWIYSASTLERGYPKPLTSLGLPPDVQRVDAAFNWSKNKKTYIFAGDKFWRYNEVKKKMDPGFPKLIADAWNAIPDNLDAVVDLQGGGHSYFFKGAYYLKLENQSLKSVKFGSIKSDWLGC
The assay is described as follows: In vitro MMP inhibition, IC50 determination (fluorogenic substrate I). Put shortly: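 IC50 was derived from the concentration-dependent fall in fluorescence (ex 328, em 415 nm) on Gly-Leu cleavage of 4 μM MCA/Dpa-quenched substrate I. Assays ran at room temperature in pH 7.5 Tris/NaCl/CaCl2/Brij buffer with MMP-2 activated by trypsin or APMA; inhibitors were diluted from 1% DMSO stocks.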

In assay [1] the target is T2, Human recombinant MMP-14 (Homo sapiens, UniProt P50281).
T2 construct: The catalytic domain enzyme was expressed in E. coli inclusion bodies, solubilized in urea; made in house
The assay is described as follows: In vitro MMP inhibition, Ki determination (fluorogenic substrate II). The procedure: Several hydroxamates and salts thereof were analyzed in in vitro assays to determine their ability to inhibit the MMP cleavage of peptide substrates. Inhibition (Ki) and IC50 constants were calculated from the assayed hydroxamate-MMP interactions.
Human recombinant MMP-1, MMP-2, MMP-9, MMP-13, and MMP-14 were used in this assay. All enzymes were prepared in Assignee's laboratories following usual laboratory procedures. Protocols for the preparation and use of these enzymes are available in the scientific literature. See, e.g., Enzyme Nomenclature (Academic Press, San Diego, Calif., 1992) (and the citations therein). See also, Frije et al., J. Biol. Chem., 26(24), 16766-73 (1994).
The MMP-14 full length cDNA was provided by Dr. Gregory Goldberg of Washington University (St. Louis, Mo.). The catalytic domain enzyme was expressed in E. coli inclusion bodies, solubilized in urea, purified on a preparative […] reverse phase HPLC column, and then refolded in the presence of zinc acetate and purified for use.
All MMPs were activated using 4-aminophenylmercuric acetate (“APMA”, Sigma Chemical, St. Louis, Mo.) or trypsin. MMP-9 also was activated using human recombinant MMP-3 (purified in Assignee's laboratory following standard cloning and purification techniques).
Two fluorogenic, methoxycoumarin-containing polypeptide substrates were used in the MMP inhibition assays:
MCA-ArgProLeuGlyLeuDpaAlaArgGluArgNH2 (II)
Here, “Dpa” is 3-(2,4-dinitrophenyl)-L-2,3-diaminopropionyl group, and “MCA” is 7-methoxycoumarin-4-yl acetyl. Substrate (I) was purchased from Baychem (Redwood City, Calif.), and substrate II was prepared Assignee's laboratory. Substrate I was used in the IC50 determination assays, while substrate II was used in the Ki determination assays. In the absence of MMP inhibitory activity, either substrate is cleaved at the Gly-Leu peptide bond. This cleavage separates the highly fluorogenic peptide from the 2,4-dinitrophenyl quencher, thus resulting in increase of fluorescent intensity.
The stock solutions of the assayed hydroxamates (or salts thereof) were prepared in 1% dimethyl sulfoxide (DMSO). These stock solutions were diluted in Buffer A (100 mM Tris-HCl, 100 mM NaCl, 10 mM CaCl2, 0.05% polyoxyethylene 23 lauryl ether, pH 7.5) to obtain solutions with different hydroxamate concentrations, i.e., assay solutions with different concentrations of the assayed MMP inhibitory compound. The experiment controls contained the same amount of Buffer A/DMSO as the assayed sample, but contained no hydroxamate (or salt thereof).
The assays from which the Ki determinations were made were performed as follows. The assayed hydroxamate samples were incubated in separate wells of untreated white polystyrene plates (Nunc Nalgene International, Rochester, N.Y.), and analyzed on a Tecan SpectraFlour Plus plate reader. The excitation wavelength was 330 nm, and the emission wavelength—420 nm. All samples (assayed hydroxamates and controls) were incubated in separate plate wells at room temperature for 1 hr in the presence of 4 μM of MMP substrate (II). In the absence of MMP inhibitory activity, substrate II was cleaved at the Gly-Leu bond resulting in an increase of relative fluorescence. Inhibition was observed as a reduced rate of this increase in relative fluorescence. The various hydroxamates were analyzed using a single low enzyme concentration with a single substrate concentration fixed at or below the Km. This protocol is a modification of method by Knight et al., FEBS Lett., 296(3), 263-266 (1992). Apparent inhibitory constants were determined by non-linear regression of reaction velocity as a function of inhibitor and enzyme concentration using Morrison's equation, as described by Kuzmic, Anal. Biochem. 286, 45-50 (2000). Modifications were made in the non-linear regression method to allow a common control reaction rate and effective enzyme concentration to be shared between all dose-response relationships on a given assay plate. […]

Assay [2] concerns the target T2, Human recombinant MMP-14. The assay is described as follows: In vitro MMP inhibition, IC50 determination (fluorogenic substrate I). Put shortly: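 IC50 came from reduced fluorescence (ex 328 nm, em 415 nm) as inhibitor concentration rose, with 4 μM substrate I cleaved at Gly-Leu. Room-temperature incubation in pH 7.5 Tris buffer with 10 mM CaCl2; the E. coli-expressed, refolded MMP-14 catalytic domain was activated with trypsin or APMA.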

Where [3] appears, read: substrate (I) 4 μM, room temperature, values not in parenthesis.
Setting [4] is: substrate (II) 4 μM, 1 hr room temperature, apparent Ki, values in parenthesis.

Regarding `O=C(NO)C1(S(=O)(=O)c2ccc(OCCCc3cccc(-c4ccc(F)cc4)c3)cc2)CCOCC1` [Example 39], the IC50 on Human recombinant MMP-2 (setting [3]) is 1.3 µM. The Ki on Human recombinant MMP-14 [1] (setting [4]) is > 10 µM.
For `COCCN1CCC(C(=O)NO)(S(=O)(=O)c2ccc(OCCCc3cc(-c4ccc(F)cc4F)cs3)cc2)CC1` [Example 47, 4-[(4-{3-[4-(2,4-difluorophenyl)thien-2-l]propoxy}phenyl)sulfonyl]-N-hydroxy-1-(2-methoxyethyl)piperidine-4-carboxamide Hydrochloride], at Human recombinant MMP-2 (setting [3]), the IC50 amounted to 0.0182 µM. In addition, the Ki at Human recombinant MMP-14 [1] (setting [4]) was 3.32 µM and 5.29 µM.
On to `COCCN1CCC(C(=O)NO)(S(=O)(=O)c2ccc(OCCCn3nnc(-c4ccc(OC(F)(F)F)cc4)n3)cc2)CC1` [Example 48], for which the figures for the IC50 at Human recombinant MMP-2 (setting [3]) and at Human recombinant MMP-14 [2] (setting [3]) were 0.105 µM and > 10 µM, respectively.
`NC(=O)c1cccc(OCCOc2ccc(S(=O)(=O)C3(C(=O)NO)CCOCC3)cc2)c1` [Example 54]: on Human recombinant MMP-2 (setting [3]), the IC50 came out at 0.0355 µM. For the same compound, the Ki at Human recombinant MMP-14 [1] (setting [4]) was 4.12 µM.
As for `O=C(NO)C1(S(=O)(=O)c2ccc(OCCCc3cccc(-c4ccco4)c3)cc2)CCOCC1` [Example 97], at Human recombinant MMP-2 (value outside parenthesis), the IC50 came to 0.185 µM. Moreover, at Human recombinant MMP-14 [1] (value in parenthesis), the Ki is > 10 µM.
For `O=C1Nc2ccc(-c3noc(CCCOc4ccc(S(=O)(=O)C5(C(=O)NO)CCN(C6CC6)CC5)cc4)n3)cc21` [Example 142] the same measures were 0.0586 µM and > 10 µM.
For `O=C(NO)C1(S(=O)(=O)c2ccc(OCCCc3cccc(-c4ccc(OC(F)(F)F)cc4)c3)cc2)CCOCC1` [Example 147] the same measures were 4.75 µM and > 10 µM.
For `O=C(NO)C1(S(=O)(=O)c2ccc(OCCCc3cccc(-c4ccccn4)c3)cc2)CCOCC1` [Example 148] the same measures were 0.272 µM and 5.15 µM.
Take `O=C(NO)C1(S(=O)(=O)c2ccc(OCCCc3cccc(-c4ccncc4)c3)cc2)CCOCC1` [Example 149]: the IC50 on Human recombinant MMP-2 (value outside parenthesis) came to 0.0771 µM. Besides, the Ki at Human recombinant MMP-14 [1] (value in parenthesis) came out at 2.53 µM.
Take `CC(C)c1ccc(-c2cccc(CCCOc3ccc(S(=O)(=O)C4(C(=O)NO)CCOCC4)cc3)c2)cc1` [Example 160]: the IC50 at Human recombinant MMP-2 (value outside parenthesis) was > 10 µM. For the same compound, the Ki at Human recombinant MMP-14 [1] (value in parenthesis) was > 10 µM.
In the case of `O=C(NO)C1(S(=O)(=O)c2ccc(OCCCc3cccc(-c4cccc(F)c4)c3)cc2)CCOCC1` [Example 161], the figures for the IC50 on Human recombinant MMP-2 (value outside parenthesis) and at Human recombinant MMP-14 [2] (value outside parenthesis) were 1 µM and > 10 µM, respectively.
Regarding `O=C(NO)C1(S(=O)(=O)c2ccc(OCCCc3cccc(-c4ccccc4Cl)c3)cc2)CCOCC1` [Example 162], the IC50 on Human recombinant MMP-2 (value outside parenthesis) amounted to 1.6 µM. On Human recombinant MMP-14 [1] (value in parenthesis), the Ki was > 10 µM.
For `Cc1ccccc1-c1cccc(CCCOc2ccc(S(=O)(=O)C3(C(=O)NO)CCOCC3)cc2)c1` [Example 164] the same measures were 1.07 µM and > 10 µM.
For `Cc1ccc(-c2cccc(CCCOc3ccc(S(=O)(=O)C4(C(=O)NO)CCOCC4)cc3)c2)cc1C` [Example 165] the same measures were 3.4 µM and > 10 µM.
As for `O=C(NO)C1(S(=O)(=O)c2ccc(OCCCc3cncc(Br)c3)cc2)CCOCC1` [Example 522], at Human recombinant MMP-2 (value outside parentheses), the IC50 is 0.0129 µM. Moreover, the Ki on Human recombinant MMP-14 [1] (value in parentheses) worked out at 6.29 µM.
For `O=C(COc1ccc(S(=O)(=O)C2(C(=O)NO)CCOCC2)cc1)c1cccc(-c2ccccc2)c1` [Example 563] the same measures were 0.0735 µM and 4.4 µM.
With `O=C(CCCOc1ccc(S(=O)(=O)C2(C(=O)NO)CCOCC2)cc1)Nc1cccc(I)c1` [Example 570], at Human recombinant MMP-2 (value outside parentheses), the IC50 came out at 0.0048 µM. Besides, on Human recombinant MMP-14 [1] (value in parentheses), the Ki was determined as 1.36 µM.
For `O=C(NO)C1(S(=O)(=O)c2ccc(OCCCc3cccc(-n4ccnc4)c3)cc2)CCOCC1` [Example 574] the same measures were 0.0294 µM and 5.39 µM.
For `O=C(NO)C1(S(=O)(=O)c2ccc(OCCCc3nc(-c4cccnc4)no3)cc2)CCOCC1` [Example 578] the same measures were 0.0205 µM and > 10 µM.
For `O=C(NO)C1(S(=O)(=O)c2ccc(OCCCc3nc(-c4ccccc4)no3)cc2)CCOCC1` [Example 584] the same measures were 0.0729 µM and 6.63 µM.
As to `O=C(NCCOc1ccc(S(=O)(=O)C2(C(=O)NO)CCOCC2)cc1)c1cc2ccccc2[nH]1` [Example 599], the IC50 at Human recombinant MMP-2 (value outside parentheses) is < 0.0001 µM; on Human recombinant MMP-14 [2] (value outside parentheses) it was 0.057 µM.
For the compound `O=C(NO)C1(S(=O)(=O)c2ccc(OCCCc3cccc(-c4ccc(C(F)(F)F)cc4)c3)cc2)CCOCC1` [Example 625], the IC50 at Human recombinant MMP-2 (value outside parentheses) turned out to be 3.5 µM. Moreover, at Human recombinant MMP-14 [1] (value in parentheses), the Ki is > 10 µM.
On to `O=C(NO)C1(S(=O)(=O)c2ccc(OCCCc3cccc(-c4ccc5c(c4)OCCO5)c3)cc2)CCOCC1` [Example 627], for which the IC50 on Human recombinant MMP-2 (value outside parentheses) came to 2.07 µM. Also, on Human recombinant MMP-14 [1] (value in parentheses), the Ki was > 10 µM.
For `O=C(NO)C1(S(=O)(=O)c2ccc(OCCCc3cccc(-c4ccc5ccccc5c4)c3)cc2)CCOCC1` [Example 629] the same measures were 0.537 µM and > 10 µM.
For `O=C(NO)C1(S(=O)(=O)c2ccc(OCCCc3cccc(-c4csc5ccccc45)c3)cc2)CCOCC1` [Example 631], the IC50 at Human recombinant MMP-2 (value outside parentheses) stood at 2.14 µM. Besides, at Human recombinant MMP-14 [1] (value in parentheses), the Ki is > 10 µM.
For `O=C(NO)C1(S(=O)(=O)c2ccc(OCCCc3cccc(-c4cc5ccccc5s4)c3)cc2)CCOCC1` [Example 633] the same measures were 2.83 µM and > 10 µM.
For `O=C(NO)C1(S(=O)(=O)c2ccc(OCCCc3cccc(-c4coc5ccccc45)c3)cc2)CCOCC1` [Example 634] the same measures were 0.486 µM and > 10 µM.
For `C=Cc1ccc(-c2cccc(CCCOc3ccc(S(=O)(=O)C4(C(=O)NO)CCOCC4)cc3)c2)cc1` [Example 635] the same measures were 2.31 µM and > 10 µM.
On to `O=C(NO)C1(S(=O)(=O)c2ccc(OCCCc3cccc(-c4ccccc4O)c3)cc2)CCOCC1` [Example 636], for which, at Human recombinant MMP-2 (value outside parentheses), the IC50 worked out at 0.195 µM. The Ki at Human recombinant MMP-14 [1] (value in parentheses) was > 10 µM.
For `O=C(NO)C1(S(=O)(=O)c2ccc(OCCCc3cccc(-c4cccc5ccccc45)c3)cc2)CCOCC1` [Example 638] the same measures were 4.4 µM and > 10 µM.

Usually IC50 stands for the concentration that inhibits the measured activity by half.
